Where two headings read alike, the source gives them in different places. Square brackets hold non-standard residues; d marks the D form. Ends that are not written are not given here. Peptide text beside a SMILES is read from it. * marks the point of attachment. Biotin = O=C1N[C@H]2[C@H](CS[C@H]2CCCCC(=O)*)N1; Bpa = N[C@@H](Cc1ccc(C(=O)c2ccccc2)cc1)C(=O)O; Decanoyl = CCCCCCCCCC(=O)*; Octanoyl = CCCCCCCC(=O)*; Ava = NCCCCC(=O)O
Experiments:
Type in all cases: biochemical, yeast (Saccharomyces cerevisae)
[1] = target: T1, yeast activated 20S proteasome (CT-L activity) (Saccharomyces cerevisiae, UniProt P23724+P30656); test: Inhibition of the CT-L (chymotrypsin-like) peptidase activity of the activated 20S proteasome, substrate Suc-LLVY-amc; conditions: for Increase of the inhibitory capacity compared with the unmodified peptide (factor): lipopeptide versus corresponding peptide, CT-L activity of activated 20S proteasome; for Inhibitory effect of the lipopeptides on the CT-L activity: yeast activated 20S proteasome, after treatment with 35 μM of lipopeptide (17.5 μM for C18/TVTYKF)
T1 construct: The yeast (Saccharomyces cerevisae) 26S and 20S proteasomes were purified according to the protocol described in; made in house; host or cells: Saccharomyces cerevisiae (native complex purified from yeast by the cited Leggett et al. 2002 protocol)
Method: (§1) The yeast (Saccharomyces cerevisae) 26S and 20S proteasomes were purified according to the protocol described in: LEGGETT et al. (2002) Molecular Cell, 10, pp 495-507.
(§2) The peptidase activities were determined using the fluorogenic substrates Suc-LLVY-amc (CT-L), Z-LLE-βNA (PA) and Boc-LRR-amc (T-L), provided by the company Bachem (Voisins-le-Bretonneux, France).
(§3) The peptidase activities of the yeast and Xenopus 26S proteasomes and those of the yeast 20S proteasome, latent and activated, were determined under the conditions described in Table II.
(§4) The compounds studied are solubilized in the buffer (peptides, pseudopeptides) or in DMSO (lipopeptides, photoactivatable peptides). The enzyme is preincubated (15 min at 30° C.) in the corresponding buffer (Table II), in the presence of the inhibitor. For the cases where the inhibitor is solubilized in DMSO (lipopeptides, photoactivatable peptides), the control without inhibitor contains an amount of DMSO identical to that of the assays with inhibitor (3.5% v/v). The reaction is triggered by adding the substrate. It is continuously monitored for 30 min at 30° C. The initial rates of the assays with inhibitors (calculated from the experimental points) are compared with those of the controls. The results presented were obtained by calculating the mean of at least two independent assays. The variability is less than 10%.
(§5) The IC50 parameter corresponds to the concentration of inhibitor that results in a 50% loss of enzymatic activity.
(§6) The enzyme is preincubated in the presence of increasing concentrations of inhibitor. The reaction is triggered by adding the substrate (see paragraph “Detection and study of the inhibitory effects”). The percentage inhibition is calculated from equation 1.
(§7) The experimental points describe the evolution of the inhibitory effect of the compound studied as a function of its concentration. As a general rule, they fit with the curve described by equation 2 in which [I] is the concentration of inhibitor
The mechanism of inhibition is determined by tracing the curve of the evolution of the V0/Vi ratio as a function of the concentration of inhibitor.

[2] = target: T2, activated 20S proteasome (PA activity) (Saccharomyces cerevisiae, UniProt P25043+P38624); test: Inhibition of the post-acid (PA) peptidase activity of the activated 20S proteasome, substrate Z-LLE-βNA
T2 construct: The yeast (Saccharomyces cerevisae) 26S and 20S proteasomes were purified according to the protocol described in; made in house; host or cells: Saccharomyces cerevisiae (native complex purified from yeast by the cited Leggett et al. 2002 protocol)
Method: as §1, §2, §3, §4, §5, §6, §7

[3] = target: T3, latent 20S proteasome (CT-L activity) (Saccharomyces cerevisiae, UniProt P23724+P30656); test: Activating effect on the CT-L activity of the latent 20S proteasome (activation factor fa); design: key: fa = initial rate with compound / initial rate of control (Va/V0); conditions: fa = Va/V0, concentration not given
T3 construct: The yeast (Saccharomyces cerevisae) 26S and 20S proteasomes were purified according to the protocol described in; made in house; host or cells: Saccharomyces cerevisiae (native complex purified from yeast by the cited Leggett et al. 2002 protocol)
Method: as §1, §2, §3
(§8) The compounds studied are solubilized in the buffer or in DMSO. The enzyme is preincubated (15 minutes at 30° C.) in the corresponding buffer (Table II), in the presence of the molecule to be tested. When the molecule is solubilized in DMSO, the control (no addition molecule to be tested) contains an amount of DMSO identical to that of the assays(3.5% v/v). The reaction is triggered by adding the substrate. It is continuously monitored for 30 minutes at 30° C. The results presented were obtained by calculating the mean of at least two independent assays. An activation is characterized by an activity, after treatment with the molecule tested, of greater than 100%. The variability is less than 10%. The results are expressed by means of an activation factor fa equal to the ratio of the initial rate Va in the presence of the compound tested to the initial rate of the control V0.

[4] = target: T4, latent 20S proteasome (T-L activity) (Saccharomyces cerevisiae, UniProt P25043+P25451); test: Activating effect on the T-L activity of the latent 20S proteasome (activation factor fa); conditions: fa = Va/V0, concentration not given
T4 construct: The yeast (Saccharomyces cerevisae) 26S and 20S proteasomes were purified according to the protocol described in; made in house; host or cells: Saccharomyces cerevisiae (native complex purified from yeast by the cited Leggett et al. 2002 protocol)
Method: as §1, §2, §3, §8

[5] = activated 20S proteasome, read-out: CT-L activity: IC50

Compound: CCCCCCCCCC(=O)N[C@H](C(=O)N[C@H](C(=O)N[C@H](C(=O)N[C@@H](Cc1ccccc1)C(=O)N[C@@H](CCCCN)C(=O)N[C@@H](Cc1ccccc1)C(=O)O)[C@@H](C)O)C(C)C)[C@@H](C)O [C10/TVTFKF, CH3—(CH2)8—CO-TVTFKF] (Decanoyl-TVTFKF-OH; C-terminus assumed)
- IC50 [1, 5]: ~35 µM
- Increase of the inhibitory capacity compared with the unmodified peptide (factor) [1]: 6.5
- Inhibitory effect of the lipopeptides on the CT-L activity [1]: 42%

Compound: CC(C)C[C@@H](CNCC(=O)N1CCC[C@H]1C(=O)N[C@@H](CO)C(=O)O)NC(=O)[C@H](CC(N)=O)NC(=O)[C@@H](N)[C@@H](C)O [Pseudopeptide 1, TNL-ψ[CH2—NH]-GPS]
- Mechanism of inhibition (kinetic analysis, V0/Vi versus inhibitor concentration) ([1]; activated 20S proteasome): reacts with the catalytic sites and the regulatory site(s)
- IC50 ([1]; estimated values, activity type not named at the place, peptide tested under conditions where its hydrolysis is negligible, read-out: IC50 (activated 20S proteasome inhibitor)): 380 µM
- inhibition at 500 µM ([2]; inhibitor 500 μM): 63%

Compound: CH3—(CH2)16—CO-TVTYKF
- fa CT-L activity [3]: 3.2

Compound: CH3—(CH2)12—CO-TVTYKF [C14/TVTYKF]
- Inhibitory effect of the lipopeptides on the CT-L activity [1]: 0%
- fa CT-L activity [3]: 2

Compound: TVTFKF [TVTFKF, reference compound]
- Mechanism of inhibition (kinetic analysis, V0/Vi versus inhibitor concentration) ([1]; activated 20S proteasome): parabolic kinetics
- IC50 [1, 5]: 229 µM
- IC50 [2]: 210 µM
- fa CT-L activity [3]: 2.3
- fa T-L activity [4]: 1.7

Compound: TITYEY [reference compound]
- fa CT-L activity [3]: 2

Compound: TITFDY [reference compound]
- fa CT-L activity [3]: 5
- fa T-L activity [4]: 3

Compound: Ac-TNL-ψ[CH2—NH]-GPS [Pseudopeptide 2]
- Effectiveness relative to pseudopeptide 1 ([1]; activated 20S proteasome): half as effective as 1
- Inhibition of the post-acid activity PA ([2]; inhibitor 1 mM): 28%

Compound: CH3—(CH2)14—CO-TITFDY [C16/TITFDY]
- Inhibitory effect of the lipopeptides on the CT-L activity [1]: 20%
- fa CT-L activity [3]: 3

Compound: CH3—(CH2)14—CO-TVTYKF
- fa CT-L activity [3]: 2

Compound: CH3—(CH2)16—CO-TITFDY [C18/TITFDY]
- Inhibitory effect of the lipopeptides on the CT-L activity [1]: 34%
- fa CT-L activity [3]: 6
- fa T-L activity [4]: 1.2

Compound: CC(C)[C@H](NC(=O)[C@@H](NC(=O)CCCCNC(=O)CCCC[C@@H]1SC[C@@H]2NC(=O)N[C@@H]21)[C@@H](C)O)C(=O)N[C@H](C(=O)N[C@@H](Cc1ccc(C(=O)c2ccccc2)cc1)C(=O)N[C@@H](CCCCN)C(=O)N[C@@H](Cc1ccccc1)C(=O)O)[C@@H](C)O [Pseudopeptide 3, Biot-Ava-TVT-Bpa-KF] ({Biotin-Ava}-TVT[Bpa]KF-OH; C-terminus assumed)
- IC50 ([1]; enzyme form and activity not stated at the place, read-out: IC50): 32 µM

Compound: TITYDF
- fa T-L activity [4]: 2.5

Compound: TITYKF [TITYKF, reference compound]
- Mechanism of inhibition (kinetic analysis, V0/Vi versus inhibitor concentration) ([1]; activated 20S proteasome): parabolic kinetics
- IC50 [1, 5]: 260 µM
- IC50 [2]: 336 µM

Compound: CCCCCCCC(=O)N[C@H](C(=O)N[C@H](C(=O)N[C@H](C(=O)N[C@@H](Cc1ccc(O)cc1)C(=O)N[C@@H](CCCCN)C(=O)N[C@@H](Cc1ccccc1)C(=O)O)[C@@H](C)O)C(C)C)[C@@H](C)O [C8/TVTYKF, CH3—(CH2)6—CO-TVTYKF] (Octanoyl-TVTYKF-OH; C-terminus assumed)
- IC50 [1, 5]: ~35 µM
- Increase of the inhibitory capacity compared with the unmodified peptide (factor) [1]: 17
- Inhibitory effect of the lipopeptides on the CT-L activity [1]: 50%

— US20080076718A1, “Novel Proteasome Modulators” (priority 2003, published 2008)
